Results taken from paper PMC5962642, “Dynamic imaging of adaptive stress response pathway activation for prediction of drug induced liver injury” (Archives of Toxicology, 2018).

Tests used:
[1] = C-max obtained from FDA or literature; ref per compound (FDA, Dailymed, Xu, O’Brien, Khetani, Regenthal, Gustafsson, Dawson, Ogutu, Patel, Schmidt, Ravic, Keisu, Hu, Wagner); cited from earlier work
[2] = two classes made from the FDA DILI-concern labeling
[3] = ref Chen et al. [2016], cited from earlier work; for DILI con. (DILI-concern labeling): FDA DILI labeling; for Hepa. (hepatotoxicity class): FDA labeling in eight classes of hepatotoxicity
[4] = ref livertox.nih.gov database; cited from earlier work

Compound	Cmax [1] [µM]	Severity class [2]	DILI con. (DILI-concern labeling) [3]	Hepa. (hepatotoxicity class) [3]	Metab (metabolic potential) [4]
C[C@H]1O[C@H](O[C@H]2[C@H](O)[C@@H](O)[C@@H](O[C@H]3[C@H](O)[C@@H](O)C(O)O[C@@H]3CO)O[C@@H]2CO)[C@H](O)[C@@H](O)[C@@H]1N[C@H]1C=C(CO)[C@@H](O)[C@H](O)[C@H]1O (stereo partly shown) [Acarbose]	0.15	Sev.	–	–	–
Nc1ncnc2c1ncn2CCOCP(=O)(O)O [Adefovir]	0.085	Non-sev.	Less-DC	2	–
Oc1ncnc2[nH]ncc12 [Allopunnol]	13.8	Sev.	Most-DC	8	–
C[N+](C)(C)CC(=O)O [Betaine]	940	Non-sev.	No-DC	1	–
CN1C(=O)CCS(=O)(=O)C1c1ccc(Cl)cc1 (stereo not shown) [Chlormezanone]	10.6	Sev.	Most-DC	8	–
CCOC(=O)C(C)(C)Oc1ccc(Cl)cc1 [Clofibrate]	470	–	Less-DC	3	YES
Br.COc1ccc2c(c1)[C@]13CCCC[C@@H]1[C@H](C2)N(C)CC3 [Dextromethorphan hbr]	0.022	Non-sev.	No-DC	–	–
CC[N+](C)(C)c1cccc(O)c1 [Edrophonium]	60.2	Non-sev.	–	1	–
CCOC(=O)[C@H](CCc1ccccc1)N[C@@H](C)C(=O)N1CCC[C@H]1C(=O)O [Enalapril]	0.4	–	Less-DC	7	YES
CCN(CC)C(=O)/C(C#N)=C/c1cc(O)c(O)c([N+](=O)[O-])c1 [Entacapone]	3.93	Non-sev.	Less-DC	1	YES
NC(N)=Nc1nc(CSCCC(N)=NS(N)(=O)=O)cs1 [Famotidine]	0.308	–	Less-DC	3	YES
CC(C(=O)O)c1cccc(Oc2ccccc2)c1 (stereo not shown) [Fenoprofen]	58.2	–	Most-DC	8	YES
CC(C(=O)O)c1ccc(-c2ccccc2)c(F)c1 (stereo not shown) [Flurbiprofen]	57.3	–	Amb.-DC	3	YES
O=C(CCCN1CCC(O)(c2ccc(Cl)cc2)CC1)c1ccc(F)cc1 [Haloperidol]	0.005	–	–	5	YES
CC(C)NNC(=O)c1ccncc1 [Iboniazid]	76.6	Sev.	Most-DC	8	YES
NC[C@H]1O[C@H](O[C@H]2[C@H](O)[C@@H](O[C@H]3O[C@H](CO)[C@@H](O)[C@H](N)[C@H]3O)[C@H](N)C[C@@H]2N)[C@H](O)[C@@H](O)[C@@H]1O [Kanamycin]	60.1	Non-sev.	–	–	–
Cc1cccc(C)c1OCC(C)N (stereo not shown) [Mexiletine]	3.83	–	–	3	YES

Compound	Cmax [1] [µM]	Severity class [2]	DILI con. (DILI-concern labeling) [3]	Hepa. (hepatotoxicity class) [3]	Metab (metabolic potential) [4]
CNC(=C[N+](=O)[O-])NCCSCc1csc(CN(C)C)n1 [Nizatidine]	4	–	Less-DC	5	YES
COc1ccc2[nH]c([S+]([O-])Cc3ncc(C)c(OC)c3C)nc2c1 (stereo not shown) [Omeprazole]	4.7	–	Less-DC	4	YES
CCC1(c2ccccc2)C(=O)NC(=O)NC1=O [Phenobarbital]	146	Non-sev.	–	3	–
O=C1NC(=O)C(c2ccccc2)(c2ccccc2)N1 [Phenytoin]	21.7	–	Most-DC	8	YES
CCc1ccc(CCOc2ccc(CC3SC(=O)NC3=O)cc2)nc1 (stereo not shown) [Pioghtazone]	2.95	Non-sev.	Less-DC	3	–
COc1cc(NC(C)CCCN)c2ncccc2c1 (stereo not shown) [Primaquine]	–	Non-sev.	No-DC	1	–
CCC1(c2ccccc2)C(=O)NCNC1=O [Primidone]	4.67	–	–	1	YES
OC(CCN1CCCC1)(c1ccccc1)C1CCCCC1 (stereo not shown) [Procychdine]	–	Non-sev.	–	–	–
NC(=O)c1ncn([C@@H]2O[C@H](CO)[C@@H](O)[C@H]2O)n1 [Ribavirin]	2.61	–	Amb.-DC	–	YES
CO[C@H]1/C=C/O[C@@]2(C)Oc3c(C)c(O)c4c(O)c(c(/C=N/N5CCN(C)CC5)c(O)c4c3C2=O)NC(=O)/C(C)=C\C=C\[C@H](C)[C@H](O)[C@@H](C)[C@@H](O)[C@@H](C)[C@H](OC(C)=O)[C@@H]1C [Rifampicin]	15	–	Most-DC	–	YES
C[N+](C)(C)CCOC(=O)CCC(=O)OCC[N+](C)(C)C [Succinylcholine]	138	Non-sev.	No-DC	1	–
CSc1ccc2c(c1)N(CCC1CCCCN1C)c1ccccc1S2 (stereo not shown) [Thiondazine]	0.55	Non-sev.	–	–	YES
Cc1ccc(C(=O)c2cc(O)c(O)c([N+](=O)[O-])c2)cc1 [Tolcapone]	22	Sev.	Most-DC	8	YES
O=c1n(CCCN2CCN(c3cccc(Cl)c3)CC2)nc2ccccn12 [Trazodone]	5.06	–	Less-DC	5	YES
Cc1c(C)c2c(c(C)c1O)CCC(C)(COc1ccc(CC3SC(=O)NC3=O)cc1)O2 (stereo not shown) [Troghtazone]	–	Sev.	Most-DC	8	YES
COc1cc(C(=O)NS(=O)(=O)c2ccccc2C)ccc1Cc1cn(C)c2ccc(NC(=O)OC3CCCC3)cc12 [Zafirlukast]	1.21	–	Most-DC	8	YES
CN(C)C/C=C(/c1ccc(Br)cc1)c1cccnc1 [Zimehdine]	–	Sev.	Most-DC	8	–
